Laboratory results from patent US20050118129A1, “Gentle and enhanced preservative systems” (priority 2003, published 2005).

Assays:
[1] = tested on: Staphylococcus aureus (ATCC 6538); experiment: Comparison of strength between saccharides, preservative efficacy against bacteria; assay type: cell-based
Method: (§1) The preservative efficacy of various saccharides and a cationic polysaccharide were tested against one bacteria, i.e., Staphylococcus aureus (ATCC 6538), and against one fungus, i.e., Aspergillus niger (ATCC 16404). Acceptance criteria for the bacteria established that the number of viable bacteria, recovered per ml, be reduced by not less than 3.0 logs at 14 days. After the rechallenge at day 14, the concentration of bacteria shall be reduced by at least 3.0 logs at day 28. Acceptance criteria for the fungus established that the number of viable yeasts and molds, recovered per ml, remain at or below the initial concentrations within an experimental error of ±0.5 logs within 14 days. After day 28, the concentration of mold and yeast shall remain at or below the concentrations after rechallenge within experimental error of ±0.5 logs. Results of the saccharide/cationic polysaccharide preservative efficacy test are set forth below in Table 1.

[2] = tested on: Aspergillus niger (ATCC 16404); experiment: Comparison of strength between saccharides, preservative efficacy against fungus; assay type: cell-based
Method: as §1

| Structure (SMILES) | Log Reduction of Staphylococcus aureus (ATCC 6538) at 28 Days (Bacteria) [1] | Log Reduction of Aspergillus niger (ATCC 16404) at 28 Days (Fungus) [2] |
| --- | --- | --- |
| O=C[C@H](O)[C@@H](O)[C@H](O)[C@H](O)CO [D-Glucose] | 1.9 Log | 3.7 Log |
| O=C[C@H](O)[C@@H](O)[C@@H](O)[C@H](O)CO [Galactose] | 2.2 Log | 1.4 Log |
| OC[C@@H](O)[C@@H](O)[C@H](O)[C@H](O)CO [Mannitol] | 2.0 Log | 2.4 Log |
| CO[C@H]1O[C@H](CO)[C@@H](O)[C@H](O)[C@H]1O [Methyl-α-D-gluco-pyranose] | 1.7 Log | 1.6 Log |
| CO[C@H]1O[C@H](CO)[C@@H](O)[C@H](O)[C@H]1O [Methyl-α-D-gluco-pyranoside] | 1.2 Log | 2.9 Log |
| OC[C@H]1O[C@H](O[C@H]2O[C@H](CO)[C@@H](O)[C@H](O)[C@H]2O)[C@H](O)[C@@H](O)[C@@H]1O [Trehalose] | 1.3 Log | 2.0 Log |
| O=C(CO)[C@@H](O[C@H]1O[C@H](CO)[C@@H](O)[C@H](O)[C@H]1O)[C@H](O)[C@H](O)CO [Turanose] | 1.4 Log | 2.1 Log |
